This note sets out measurements from US20200085791A1, “[(PHENYLSULFONYL)OCTAHYDRO-EPIMINOISOINDOL-YL](1H-1,2,3-TRIAZOL-5-YL)METHANONES” (Bayer Pharma Aktiengesellschaft, priority 2016, published 2020).

The structures appear in SMILES notation.

This assay concerns the target T1, recombinant human AKR1C3 (Aldo-keto reductase family 1 member C3) (Homo sapiens, UniProt P42330).
T1 construct: GST (cleaved yes); made in house; host or cells: E. coli
T1 sequence (P42330 1-323): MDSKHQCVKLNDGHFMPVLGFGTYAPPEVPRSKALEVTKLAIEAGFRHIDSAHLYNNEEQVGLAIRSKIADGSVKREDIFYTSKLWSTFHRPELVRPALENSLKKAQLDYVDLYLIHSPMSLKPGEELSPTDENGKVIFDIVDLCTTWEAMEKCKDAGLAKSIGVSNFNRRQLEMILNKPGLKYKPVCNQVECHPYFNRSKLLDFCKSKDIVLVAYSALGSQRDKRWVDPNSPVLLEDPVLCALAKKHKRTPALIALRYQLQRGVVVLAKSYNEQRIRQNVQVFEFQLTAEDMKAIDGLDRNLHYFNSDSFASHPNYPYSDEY
Briefly: In Vitro Assay 1: AKR1C3-inhibitory activity (Coumberone to Coumberol fluorescence assay). In kind it is biochemical. Particulars: recombinant enzyme, Coumberone 0.3 μM, NADPH 10 μM, 15 min pre-incubation, 4-parameter fit; average or median values. As for the experimental part: In Vitro Assay 1: AKR1C3-Inhibitory Activity
The AKR1C3-inhibitory activity of the substances of the present invention was measured in the AKR1C3 assay described in the paragraphs below.
Essentially, the enzyme activity is measured by quantification of the Coumberol from Coumberone (Halim, M., Yee, D. J., and Sames, D., J. AM. CHEM. SOC. 130, 14123-14128 (2008) and Yee, D. J., Balsanek, V., Bauman, D. R., Penning, T. M., and Sames, D., Proc. Natl. Acad. Sci. USA 103, 13304-13309 (2006)). In this test, the increase of the highly fluorescent Coumberol by NADPH- (nicotinamide adenine dinucleotide phosphate)-dependent reduction of the non-fluorescent Coumberone by AKR1C3 can be determined.
The enzyme used was recombinant human AKR1C3 (Aldo-keto reductase family 1 member C3) (GenBank Accession No. NM_003739). This was expressed in E. coli as GST (glutathione S transferase) fusion protein and purified by glutathione Sepharose affinity chromatography. The GST was removed by digestion with thrombin and subsequent size exclusion chromatography (Dufort, I., Rheault, P., Huang, X F., Soucy, P., and Luu-The, V., Endocrinology 140, 568-574 (1999)).
For the assay, 50 nl of a 100-fold concentrated solution of the test substance in DMSO were pipetted into a black low-volume 384-well microtiter plate (Greiner Bio-One, Frickenhausen, Germany), 2.5 μl of a solution of AKR1C3 in assay buffer [50 mM potassium phosphate buffer pH 7, 1 mM DTT, 0.0022% (w/v) Pluronic F-127, 0.01% BSA (w/v) and protease inhibitor cocktail (Complete, EDTA-free Protease Inhibitor Cocktail from Roche)] were added and the mixture was incubated for 15 min to allow pre-binding of the substances to the enzyme prior to the enzyme reaction. The enzyme reaction was then started by addition of 2.5 μl of a solution of NADPH (20 μM→final concentration in 5 μl of assay volume is 10 μM) and Coumberone (0.6 μM→final concentration in 5 μl of assay volume is 0.3 μM) in assay buffer, and the resulting mixture was incubated at […] for the reaction time of typically 90 min. The concentration of the AKR1C3 and the reaction time was adapted to the respective activity of the enzyme preparation and adjusted such that the assay was carried out in the linear range.
Typical AKR1C3 concentrations were in the region of 1 nM. The reaction was stopped by addition of 2.5 μl of a stop solution consisting of the inhibitor EM-1404 [F. Labrie et al. U.S. Pat. No. 6,541,463, 2003] (3 μM→final concentration in 7.5 μl of assay volume is 1 μM). The fluorescence of the Coumberole was then measured at 520 nm (excitation at 380 nm) using a suitable measuring instrument (Pherastar from BMG Labtechnologies). The intensity of the fluorescence was used as a measure of the amount of Coumberole formed and thus of the enzyme activity of AKR1C3. The data were normalized (enzyme reaction without inhibitor—0% inhibition; all other assay components, but no enzyme=100% inhibition).
The term IC50 denotes the concentration needed to halve the response being measured. For the compound `O=C(c1c[nH]nn1)N1C[C@@H]2[C@H](C1)[C@@H]1CC[C@H]2N1S(=O)(=O)c1cc(F)cc(F)c1` [Example 7, {(3aR,4S,7R,7aS)-8-[(3,5-difluorophenyl)sulfonyl]octahydro-2H-4,7-epiminoisoindol-2-yl}(1H-1,2,3-triazol-4-yl)methanone], the half-inhibitory concentration (IC50) is 74 nM.
In the case of `Cc1cccc(S(=O)(=O)N2[C@@H]3CC[C@H]2[C@H]2CN(C(=O)c4cnn[nH]4)C[C@H]23)c1` [Example 23, {(3aR,4S,7R,7aS)-8-[(3-methylphenyl)sulfonyl]octahydro-2H-4,7-epiminoisoindol-2-yl}(1H-1,2,3-triazol-5-yl)methanone], the 50% inhibitory concentration (IC50) came out at 39 nM.
In the case of `Cc1cc(Cl)cc(S(=O)(=O)N2[C@@H]3CC[C@H]2[C@@H]2CN(C(=O)c4cnn[nH]4)C[C@@H]23)c1` [Example 68, {(3aR,4R,7S,7aS)-8-[(3-chloro-5-methylphenyl)sulfonyl]octahydro-2H-4,7-epiminoisoindol-2-yl}(1H-1,2,3-triazol-5-yl)methanone], the 50% inhibitory concentration (IC50) came out at 48 nM.
`O=C(c1c[nH]nn1)N1C[C@@H]2[C@H](C1)[C@@H]1CC[C@H]2N1S(=O)(=O)c1cc(Cl)cc(Cl)c1` [Example 4, {(3aR,4S,7R,7aS)-8-[(3,5-dichlorophenyl)sulfonyl]octahydro-2H-4,7-epiminoisoindol-2-yl}(1H-1,2,3-triazol-4-yl)methanone]: the 50% inhibitory concentration (IC50) turned out to be 44 nM.
The same measure for `O=C(c1c[nH]nn1)N1C[C@@H]2[C@H](C1)[C@@H]1CC[C@H]2N1S(=O)(=O)c1c(F)cccc1F` [Example 12, {(3aR,4S,7R,7aS)-8-[(2,6-difluorophenyl)sulfonyl]octahydro-2H-4,7-epiminoisoindol-2-yl}(1H-1,2,3-triazol-4-yl)methanone]: 43 nM; for `O=C(c1cnn[nH]1)N1C[C@@H]2[C@H](C1)[C@H]1CC[C@@H]2N1S(=O)(=O)c1cccc2nsnc12` [Example 45, [(3aR,4R,7S,7aS)-8-(2,1,3-benzothiadiazol-4-ylsulfonyl)octahydro-2H-4,7-epiminoisoindol-2-yl](1H-1,2,3-triazol-5-yl)methanone]: 109 nM; for `O=C(c1cnn[nH]1)N1C[C@@H]2[C@H](C1)[C@H]1CC[C@@H]2N1S(=O)(=O)c1ccc(F)c(F)c1F` [Example 49, 1H-1,2,3-triazol-5-yl{(3aR,4R,7S,7aS)-8-[(2,3,4-trifluorophenyl)sulfonyl]octahydro-2H-4,7-epiminoisoindol-2-yl}methanone]: 148 nM.
On to `N#Cc1ccccc1S(=O)(=O)N1[C@@H]2CC[C@H]1[C@@H]1CN(C(=O)c3cnn[nH]3)C[C@@H]12` [Example 44, 2-{[(3aR,4R,7S,7aS)-2-(1H-1,2,3-triazol-5-ylcarbonyl)octahydro-1H-4,7-epiminoisoindol-8-yl]sulfonyl}benzonitrile], for which the IC50 stood at 58 nM.
The same measure for `Cc1cc(C)c(S(=O)(=O)N2[C@@H]3CC[C@H]2[C@@H]2CN(C(=O)c4cnn[nH]4)C[C@@H]23)c(C)c1` [Example 34, 1H-1,2,3-triazol-5-yl{(3aR,4R,7S,7aS)-8-[(2,4,6-trimethylphenyl)sulfonyl]octahydro-2H-4,7-epiminoisoindol-2-yl}methanone]: 27 nM; for `O=C(c1cnn[nH]1)N1C[C@@H]2[C@H](C1)[C@H]1CC[C@@H]2N1S(=O)(=O)c1ccc(Cl)c(Cl)c1` [Example 37, {(3aR,4R,7S,7aS)-8-[(3,4-dichlorophenyl)sulfonyl]octahydro-2H-4,7-epiminoisoindol-2-yl}(1H-1,2,3-triazol-5-yl)methanone]: 82 nM; for `COc1ccc(OC)c(S(=O)(=O)N2[C@@H]3CC[C@H]2[C@@H]2CN(C(=O)c4cnn[nH]4)C[C@@H]23)c1` [Example 36, {(3aR,4R,7S,7aS)-8-[(2,5-dimethoxyphenyl)sulfonyl]octahydro-2H-4,7-epiminoisoindol-2-yl}(1H-1,2,3-triazol-5-yl)methanone]: 935 nM.
In the case of `O=C(c1cnn[nH]1)N1C[C@@H]2[C@H](C1)[C@H]1CC[C@@H]2N1S(=O)(=O)c1ccccc1[N+](=O)[O-]` [Example 35, {(3aR,4R,7S,7aS)-8-[(2-nitrophenyl)sulfonyl]octahydro-2H-4,7-epiminoisoindol-2-yl}(1H-1,2,3-triazol-5-yl)methanone], the concentration for half-maximal inhibition (IC50) worked out at 4 nM.
In the case of `O=C(c1cnn[nH]1)N1C[C@@H]2[C@H](C1)[C@H]1CC[C@@H]2N1S(=O)(=O)c1ccc([N+](=O)[O-])cc1` [Example 32, {(3aR,4R,7S,7aS)-8-[(4-nitrophenyl)sulfonyl]octahydro-2H-4,7-epiminoisoindol-2-yl}(1H-1,2,3-triazol-5-yl)methanone], the IC50 came to 420 nM.
`Cc1cccc(Cl)c1S(=O)(=O)N1[C@@H]2CC[C@H]1[C@@H]1CN(C(=O)c3cnn[nH]3)C[C@@H]12` [Example 40, {(3aR,4R,7S,7aS)-8-[(2-chloro-6-methylphenyl)sulfonyl]octahydro-2H-4,7-epiminoisoindol-2-yl}(1H-1,2,3-triazol-5-yl)methanone]: the 50% inhibitory concentration (IC50) turned out to be 3 nM.
Take `COc1ccc(Cl)cc1S(=O)(=O)N1[C@@H]2CC[C@H]1[C@@H]1CN(C(=O)c3cnn[nH]3)C[C@@H]12` [Example 47, {(3aR,4R,7S,7aS)-8-[(5-chloro-2-methoxyphenyl)sulfonyl]octahydro-2H-4,7-epiminoisoindol-2-yl}(1H-1,2,3-triazol-5-yl)methanone]: the IC50 was found to be 85 nM.
The same measure for `N#Cc1cccc(S(=O)(=O)N2[C@@H]3CC[C@H]2[C@H]2CN(C(=O)c4cnn[nH]4)C[C@H]23)c1` [Example 26, 3-{[(3aR,4S,7R,7aS)-2-(1H-1,2,3-triazol-5-ylcarbonyl)octahydro-1H-4,7-epiminoisoindol-8-yl]sulfonyl}benzonitrile]: 322 nM; for `O=C(c1cnn[nH]1)N1C[C@@H]2[C@H](C1)[C@H]1CC[C@@H]2N1S(=O)(=O)c1ccc2nsnc2c1` [Example 48, [(3aR,4R,7S,7aS)-8-(2,1,3-benzothiadiazol-5-ylsulfonyl)octahydro-2H-4,7-epiminoisoindol-2-yl](1H-1,2,3-triazol-5-yl)methanone]: 213 nM; for `O=C(c1cnn[nH]1)N1C[C@@H]2[C@H](C1)[C@H]1CC[C@@H]2N1S(=O)(=O)c1cccc(F)c1Cl` [Example 64, {(3aR,4R,7S,7aS)-8-[(2-chloro-3-fluorophenyl)sulfonyl]octahydro-2H-4,7-epiminoisoindol-2-yl}(1H-1,2,3-triazol-5-yl)methanone]: 12 nM.
For `Cc1cc(C)cc(S(=O)(=O)N2[C@@H]3CC[C@H]2[C@H]2CN(C(=O)c4cnn[nH]4)C[C@H]23)c1` [Example 24, {(3aR,4S,7R,7aS)-8-[(3,5-dimethylphenyl)sulfonyl]octahydro-2H-4,7-epiminoisoindol-2-yl}(1H-1,2,3-triazol-5-yl)methanone], the IC50 was 66 nM.
Regarding `O=C(c1c[nH]nn1)N1C[C@@H]2[C@H](C1)[C@@H]1CC[C@H]2N1S(=O)(=O)c1cccc(S(F)(F)(F)(F)F)c1` [Example 11, [(3aR,4S,7R,7aS)-8-{[3-(pentafluoro-λ^6-sulfanyl)phenyl]sulfonyl}octahydro-2H-4,7-epiminoisoindol-2-yl](1H-1,2,3-triazol-4-yl)methanone], the IC50 amounted to 69 nM.
For `Cc1ccc(Cl)cc1S(=O)(=O)N1[C@@H]2CC[C@H]1[C@@H]1CN(C(=O)c3cnn[nH]3)C[C@@H]12` [Example 53, {(3aR,4R,7S,7aS)-8-[(5-chloro-2-methylphenyl)sulfonyl]octahydro-2H-4,7-epiminoisoindol-2-yl}(1H-1,2,3-triazol-5-yl)methanone], the IC50 turned out to be 2 nM.
